Assay results published in patent US20240199546A1, “INHIBITORS OF SOLUTE CARRIER FAMILY 6A MEMBER 19 (SLC6A19) AND METHODS OF USE THEREOF” (Maze Therapeutics, Inc., priority 2022, published 2024).
Structures can show the parent of a compound that is named as a salt. Values belong to the compound of their own block, whether it stands above or below them.

Key:
human SLC6A19 and TMEM27 [1] = target: T1, human SLC6A19 and TMEM27 (Homo sapiens, UniProt Q695T7); assay: Radiolabelled (3H) leucine uptake in CHO cells with doxycycline-inducible expression of human SLC6A19 and TMEM27 (Example B-1); type: cell-based; details: CHO cells with doxycycline-inducible expression of human SLC6A19 and TMEM27, read-out: SLC6A19_Radioligand Uptake Assay IC50
T1 construct: expressed in transfected cells
T1 sequence (Q695T7 1-634): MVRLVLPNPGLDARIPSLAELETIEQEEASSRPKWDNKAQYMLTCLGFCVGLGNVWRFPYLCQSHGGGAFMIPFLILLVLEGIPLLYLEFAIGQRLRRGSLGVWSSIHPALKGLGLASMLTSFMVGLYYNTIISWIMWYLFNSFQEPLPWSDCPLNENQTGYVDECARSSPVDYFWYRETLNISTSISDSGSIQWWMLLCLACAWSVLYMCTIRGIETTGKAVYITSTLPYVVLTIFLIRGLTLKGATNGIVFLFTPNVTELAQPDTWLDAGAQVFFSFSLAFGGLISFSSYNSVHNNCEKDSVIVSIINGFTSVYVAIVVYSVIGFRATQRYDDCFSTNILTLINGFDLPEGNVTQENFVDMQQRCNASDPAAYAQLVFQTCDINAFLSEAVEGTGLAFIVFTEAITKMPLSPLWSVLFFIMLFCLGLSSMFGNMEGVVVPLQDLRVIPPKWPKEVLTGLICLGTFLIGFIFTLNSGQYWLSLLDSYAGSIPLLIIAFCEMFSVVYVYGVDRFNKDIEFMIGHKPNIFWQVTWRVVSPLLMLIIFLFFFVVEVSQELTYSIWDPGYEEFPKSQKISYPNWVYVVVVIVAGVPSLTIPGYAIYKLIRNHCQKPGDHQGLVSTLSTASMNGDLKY
T1 sequence (Q9HBJ8 15-222 partner): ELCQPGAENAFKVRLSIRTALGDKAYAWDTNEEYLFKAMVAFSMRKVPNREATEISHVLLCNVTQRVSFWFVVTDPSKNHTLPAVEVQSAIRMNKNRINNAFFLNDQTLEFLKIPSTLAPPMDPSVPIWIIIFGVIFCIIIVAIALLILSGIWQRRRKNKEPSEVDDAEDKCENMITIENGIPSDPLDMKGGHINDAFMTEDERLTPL
Summary of the method: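 CHO cells were induced with doxycycline for 18 h at 37 °C, washed in HBSS, then exposed to compounds for 1 h: 8-point, 3-fold dilutions in duplicate, 0.5% DMSO final. Uptake measured by scintillation counting after 2 h shaking. Activity normalized with positive control as 0% and DMSO as 100%.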

human SLC6A19 and TMEM27 [2] = target: T1, human SLC6A19 and TMEM27; assay: 13C6,15N-isoleucine uptake in CHO cells with doxycycline-inducible expression of human SLC6A19 and TMEM27, RapidFire mass spectrometry (Example B-2); type: cell-based; details: read-out: SLC6A19_RapidFire Uptake Assay IC50
Summary of the method: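 CHO cells induced overnight with doxycycline to express human SLC6A19 plus TMEM27; 20 min preincubation with compound (10-point 2-fold series, duplicate) at 37 °C in HEPES buffer pH 7.2, then 20 min with 13C6,15N-isoleucine. Intracellular label quantified by RapidFire MS against 13C-leucine standard; positive control defined 100% inhibition.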

IC50 (human SLC6A19 and TMEM27 [1]): 273 nM
IC50 (human SLC6A19 and TMEM27 [2]): 194 nM
SMILES: CC1(C(=O)NCc2cc3cc(C4CC4)c(OCc4cscn4)cc3[nH]2)CC1 [Compound 341, N-((5-cyclopropyl-6-(thiazol-4-ylmethoxy)-1H-indol-2-yl)methyl)-1-methylcyclopropane-1-carboxamide]

IC50 (human SLC6A19 and TMEM27 [1]): 353 nM
IC50 (human SLC6A19 and TMEM27 [2]): 485 nM
SMILES: CC1CN(C(=O)NCc2cc3cc(F)c(OCc4ccon4)cc3[nH]2)C1 [Compound 389, N-((5-fluoro-6-(isoxazol-3-ylmethoxy)-1H-indol-2-yl)methyl)-3-methylazetidine-1-carboxamide]

IC50 (human SLC6A19 and TMEM27 [1]): 397 nM
IC50 (human SLC6A19 and TMEM27 [2]): 240 nM
SMILES: O=C(NCc1cc2cc(Cl)c(OCc3cscn3)cc2[nH]1)C1CC(F)(F)C1 [Compound 495, N-((5-chloro-6-(thiazol-4-ylmethoxy)-1H-indol-2-yl)methyl)-3,3-difluorocyclobutane-1-carboxamide]

IC50 (human SLC6A19 and TMEM27 [1]): 345 nM
IC50 (human SLC6A19 and TMEM27 [2]): 263 nM
SMILES: O=C(NCc1cc2cc(F)c(CCc3ccon3)cc2[nH]1)N1CCCC1 [Compound 603, N-((5-fluoro-6-(2-(isoxazol-3-yl)ethyl)-1H-indol-2-yl)methyl)pyrrolidine-1-carboxamide]

IC50 (human SLC6A19 and TMEM27 [1]): 210 nM
IC50 (human SLC6A19 and TMEM27 [2]): 149 nM
SMILES: COc1cc2cc(CNC(=O)C3(C)CC3)[nH]c2cc1CCc1cscn1 [Compound 631, N-((5-methoxy-6-(2-(thiazol-4-yl)ethyl)-1H-indol-2-yl)methyl)-1-methylcyclopropane-1-carboxamide]

IC50 (human SLC6A19 and TMEM27 [1]): 552 nM
IC50 (human SLC6A19 and TMEM27 [2]): 1040 nM
SMILES: CCC(=O)NCc1cc2cc(F)c(OCc3coc(C)n3)cc2[nH]1 [Compound 550, N-((5-fluoro-6-((2-methyloxazol-4-yl)methoxy)-1H-indol-2-yl)methyl)propionamide]

IC50 (human SLC6A19 and TMEM27 [1]): 278 nM
IC50 (human SLC6A19 and TMEM27 [2]): 292 nM
SMILES: Cc1cc2cc(CNC(=O)N3CCC3)[nH]c2cc1OCc1cscn1 [Compound 528, N-((5-methyl-6-(thiazol-4-ylmethoxy)-1H-indol-2-yl)methyl)azetidine-1-carboxamide]

IC50 (human SLC6A19 and TMEM27 [1]): 340 nM
IC50 (human SLC6A19 and TMEM27 [2]): 402 nM
SMILES: CC1CN(C(=O)NCc2cc3cc(Cl)c(OCc4ccon4)cc3[nH]2)C1 [Compound 390, N-((5-chloro-6-(isoxazol-3-ylmethoxy)-1H-indol-2-yl)methyl)-3-methylazetidine-1-carboxamide]

IC50 (human SLC6A19 and TMEM27 [1]): 290 nM
IC50 (human SLC6A19 and TMEM27 [2]): 175 nM
SMILES: O=C(NCc1cc2cc(Cl)c(OCc3cccc(F)n3)cc2[nH]1)N1CCC1 [Compound 402, N-((5-chloro-6-((6-fluoropyridin-2-yl)methoxy)-1H-indol-2-yl)methyl)azetidine-1-carboxamide]

IC50 (human SLC6A19 and TMEM27 [1]): 67.5 nM
IC50 (human SLC6A19 and TMEM27 [2]): 469 nM
SMILES: CC1(C(=O)NCc2cc3cc(Cl)c(OCc4cc(C(F)(F)F)on4)cc3[nH]2)CC1 [Compound 352, N-((5-chloro-6-((5-(trifluoromethyl)isoxazol-3-yl)methoxy)-1H-indol-2-yl)methyl)-1-methylcyclopropane-1-carboxamide]

IC50 (human SLC6A19 and TMEM27 [1]): 347 nM
IC50 (human SLC6A19 and TMEM27 [2]): 172 nM
SMILES: Cn1ncc(COc2cc3[nH]c(CNC(=O)N4CCCC4)cc3cc2Cl)n1 [Compound 406, N-((5-chloro-6-((2-methyl-2H-1,2,3-triazol-4-yl)methoxy)-1H-indol-2-yl)methyl)pyrrolidine-1-carboxamide]

IC50 (human SLC6A19 and TMEM27 [1]): 430 nM
IC50 (human SLC6A19 and TMEM27 [2]): 424 nM
SMILES: Cn1ncc(COc2cc3[nH]c(CNC(=O)C4(C)CC4)cc3cc2F)n1 [Compound 496, N-((5-fluoro-6-((2-methyl-2H-1,2,3-triazol-4-yl)methoxy)-1H-indol-2-yl)methyl)-1-methylcyclopropane-1-carboxamide]

IC50 (human SLC6A19 and TMEM27 [1]): 156 nM
IC50 (human SLC6A19 and TMEM27 [2]): 113 nM
SMILES: COc1cc2cc(CNC(=O)C3(C)CC3)[nH]c2cc1CCc1ccon1 [Compound 630, N-((6-(2-(isoxazol-3-yl)ethyl)-5-methoxy-1H-indol-2-yl)methyl)-1-methylcyclopropane-1-carboxamide]

IC50 (human SLC6A19 and TMEM27 [1]): 2470 nM
IC50 (human SLC6A19 and TMEM27 [2]): 1540 nM
SMILES: CC1(C(=O)NCc2cc3cc(Cl)c(OCc4c(F)ccnc4Cl)cc3[nH]2)CC1 [Compound 351, N-((5-chloro-6-((2-chloro-4-fluoropyridin-3-yl)methoxy)-1H-indol-2-yl)methyl)-1-methylcyclopropane-1-carboxamide]

IC50 (human SLC6A19 and TMEM27 [1]): 1310 nM
IC50 (human SLC6A19 and TMEM27 [2]): 1820 nM
SMILES: O=C(NCc1cc2cc(F)c(NCc3ccon3)cc2[nH]1)N1CCC1 [Compound 470, N-((5-fluoro-6-((isoxazol-3-ylmethyl)amino)-1H-indol-2-yl)methyl)azetidine-1-carboxamide]

Continued, compound first:

SMILES: CC1(C(=O)NCc2cc3cc(Cl)c(OCc4ccc(F)nc4)cc3[nH]2)CC1 [Compound 31, N-((5-chloro-6-((6-fluoropyridin-3-yl)methoxy)-1H-indol-2-yl)methyl)-1-methylcyclopropane-1-carboxamide]
IC50 (human SLC6A19 and TMEM27 [1]): 419 nM
IC50 (human SLC6A19 and TMEM27 [2]): 504 nM

SMILES: CC1(C(=O)NCc2cc3c(F)cc(OCc4ccon4)cc3[nH]2)CC1 [Compound 27, N-((4-fluoro-6-(isoxazol-3-ylmethoxy)-1H-indol-2-yl)methyl)-1-methylcyclopropane-1-carboxamide]
IC50 (human SLC6A19 and TMEM27 [1]): 84 nM
IC50 (human SLC6A19 and TMEM27 [2]): 92 nM

SMILES: CC1(C(=O)NCc2cc3ccc(OCc4cccnc4F)cc3[nH]2)CC1 [Compound 98, N-((6-((2-fluoropyridin-3-yl)methoxy)-1H-indol-2-yl)methyl)-1-methylcyclopropane-1-carboxamide formate]
IC50 (human SLC6A19 and TMEM27 [1]): 210 nM
IC50 (human SLC6A19 and TMEM27 [2]): 274 nM

SMILES: CC1(C(=O)NCc2cc3ccc(SCc4ccon4)cc3[nH]2)CC1 [Compound 196, N-((6-((isoxazol-3-ylmethyl)thio)-1H-indol-2-yl)methyl)-1-methylcyclopropanecarboxamide]
IC50 (human SLC6A19 and TMEM27 [1]): 207 nM
IC50 (human SLC6A19 and TMEM27 [2]): 460 nM

SMILES: O=C(NCc1cc2cc(Cl)c(OCc3cocn3)cc2[nH]1)N1CCCC1 [Compound 113, N-((5-chloro-6-(oxazol-4-ylmethoxy)-1H-indol-2-yl)methyl)pyrrolidine-1-carboxamide]
IC50 (human SLC6A19 and TMEM27 [1]): 284 nM
IC50 (human SLC6A19 and TMEM27 [2]): 174 nM

SMILES: Cn1ncc(COc2cc3[nH]c(CNC(=O)C4(C)CC4)cc3cc2Cl)n1 [Compound 172, N-((5-chloro-6-((2-methyl-2H-1,2,3-triazol-4-yl)methoxy)-1H-indol-2-yl)methyl)-1-methylcyclopropane-1-carboxamide]
IC50 (human SLC6A19 and TMEM27 [1]): 157 nM
IC50 (human SLC6A19 and TMEM27 [2]): 41 nM

SMILES: CC1(C(=O)NCc2cc3cc(F)c(OCc4cccc(F)n4)cc3[nH]2)CC1 [Compound 327, N-((5-fluoro-6-((6-fluoropyridin-2-yl)methoxy)-1H-indol-2-yl)methyl)-1-methylcyclopropane-1-carboxamide]
IC50 (human SLC6A19 and TMEM27 [1]): 223 nM
IC50 (human SLC6A19 and TMEM27 [2]): 89.1 nM

SMILES: CC1(C(=O)NCc2cc3cc(Cl)c(CCc4cscn4)cc3[nH]2)CC1 [Compound 149, N-((5-chloro-6-(2-(thiazol-4-yl)ethyl)-1H-indol-2-yl)methyl)-1-methylcyclopropane-1-carboxamide]
IC50 (human SLC6A19 and TMEM27 [1]): 85 nM
IC50 (human SLC6A19 and TMEM27 [2]): 34 nM

SMILES: O=C(NCc1cc2cc(F)c(OCc3cscn3)cc2[nH]1)N1CCCC1 [Compound 114, N-((5-fluoro-6-(thiazol-4-ylmethoxy)-1H-indol-2-yl)methyl)pyrrolidine-1-carboxamide]
IC50 (human SLC6A19 and TMEM27 [1]): 184 nM
IC50 (human SLC6A19 and TMEM27 [2]): 158 nM

SMILES: CC(C)C(=O)NCc1cc2cc(Cl)c(OCc3cscn3)cc2[nH]1 [Compound 145, N-((5-chloro-6-(thiazol-4-ylmethoxy)-1H-indol-2-yl)methyl)isobutyramide]
IC50 (human SLC6A19 and TMEM27 [1]): 73 nM
IC50 (human SLC6A19 and TMEM27 [2]): 43 nM

SMILES: CC1(C(=O)NCc2cc3cc(Cl)c(OCc4cccc(F)n4)cc3[nH]2)CC1 [Compound 32, N-((5-chloro-6-((6-fluoropyridin-2-yl)methoxy)-1H-indol-2-yl)methyl)-1-methylcyclopropane-1-carboxamide]
IC50 (human SLC6A19 and TMEM27 [1]): 133 nM
IC50 (human SLC6A19 and TMEM27 [2]): 58 nM

SMILES: CC(=O)NCc1cc2cc(Cl)c(OCc3ccno3)cc2[nH]1 [Compound 219, N-((5-chloro-6-(isoxazol-5-ylmethoxy)-1H-indol-2-yl)methyl)acetamide]
IC50 (human SLC6A19 and TMEM27 [1]): 134 nM
IC50 (human SLC6A19 and TMEM27 [2]): 103 nM

SMILES: O=C(NCc1cc2cc(F)c(OCc3ccon3)cc2[nH]1)C1(F)CC1 [Compound 233, 1-fluoro-N-((5-fluoro-6-(isoxazol-3-ylmethoxy)-1H-indol-2-yl)methyl)cyclopropane-1-carboxamide]
IC50 (human SLC6A19 and TMEM27 [1]): 112 nM
IC50 (human SLC6A19 and TMEM27 [2]): 57 nM

SMILES: Cc1ncc(COc2cc3[nH]c(CNC(=O)C4(C)CC4)cc3cc2F)s1 [Compound 13, N-((5-fluoro-6-((2-methylthiazol-5-yl)methoxy)-1H-indol-2-yl)methyl)-1-methylcyclopropane-1-carboxamide]
IC50 (human SLC6A19 and TMEM27 [1]): 637 nM
IC50 (human SLC6A19 and TMEM27 [2]): 764 nM
